Results on one compound are retold here after patent US20200399308A1, “COMPOUNDS AND METHODS FOR ELICITING ANTIMICROBIAL ACTIVITY” (Technion Research & Development Foundation Limited, priority 2018, published 2020).

Values after ≈ are worked out from the molar mass of the structure shown. Non-standard residues stand in square brackets, D forms with d. Residues, ends and D or L forms follow the SMILES beside them. *: point of attachment. 12Ado = NCCCCCCCCCCCC(=O)O; Decanoyl = CCCCCCCCCC(=O)*; Orn = NCCC[CH](N)C(=O)O

One series can be described thus: Hemolytic assay. The class given is cell-based. The note with it: fresh mouse red blood cells (1%); hemolysis of 50% of mouse red blood cells (1%) after 3 hours in PBS; read-out: LC50, fifty percent lethal concentration (hemolysis). Here is the method:
(§1) Organization of the compounds in aqueous solution was assessed by light-scattering measurements in phosphate buffered saline (PBS; 10 mM Na2HPO4, 150 mM NaCl, pH=7.0). Hemolytic assays were performed as described elsewhere, using fresh mouse red blood cells.
(§2) The mean value (±SD) is shown for Compound C; Minimum inhibitory concentration (MIC) of compounds required to inhibit bacterial proliferation after overnight incubation.

The subject of series [1] is E. coli 25922. Nature of the series: Outer-membrane damage assay (NPN uptake). The class given is cell-based, Escherichia coli. Conditions: sub-MIC concentrations. Here is the method: 1-N-phenylnaphthylamine (NPN) uptake (manifested as fluorescence) reflects outer-membrane damage because normally bacteria are able to exclude hydrophobic substances. As described elsewhere, E. coli 25922 was grown to the mid-logarithmic phase of growth (OD=0.4-0.6 at 600 nm), centrifuged, and resuspended in 5 mM HEPES buffer containing 5 mM glucose to OD 0.5. Next, […] of NPN solution (0.2 mM) was added to every milliliter bacteria suspension. Using black 96-well plates, […] of bacteria suspension was mixed with […] of test compound at the desired concentration and the fluorescence immediately monitored (excitation 360 nm, emission 460 nm) for up to 10 min. Data were obtained from at least 2 independent experiments performed in triplicate.
(FU denotes fluorescence units; triangles denote Compound B, circles denote PMB, squares denote untreated control; error bars=SD).

For series [2], the system named is E. coli 25922. The series is described as follows: Growth kinetics by absorbance at 620 nm. The note with it: 10 μM Compound B, culture medium. In kind it is cell-based, Escherichia coli. Here is the method: (§3) FIGS. 6A-B present growth kinetics assessed by measuring the absorbance at 620 nm of E. coli 25922 (FIG. 6A) and K. pneumoniae 1287 (FIG. 6B) in absence or presence of the 10 μM of Compound B (circles denote vehicle control, triangles denote Compound B; error bars represent standard deviations).

Series [3] concerns Pseudomonas aeruginosa 11816. Nature of the series: Minimal inhibitory concentration. Conditions: Pa 11816, overnight incubation, read-out: MIC. In kind it is cell-based. Here is the method:
(§4) Minimal inhibitory concentrations (MICs) were determined as previously described. […] MICs were determined by microdilution susceptibility testing in 96-well plates (by Nunc) using inocula of 10^5 bacteria per ml. Cell populations were evaluated by optical density measurements at 620 nm and were calibrated against a set of standards. Hundred (100) μl of a bacterial suspension were added to 100 μl of culture medium (control) or to 100 μl of culture medium containing various tested compound concentrations in 2-fold serial dilutions. Inhibition of proliferation was determined by optical density measurements at 620 nm after an incubation period of 24 hours at 37° C. Data were obtained from ≥2 independent experiments performed in duplicate.
as §2

The subject of series [4] is Pseudomonas aeruginosa 11662. The series is described as follows: Minimal inhibitory concentration. In kind it is cell-based. Conditions: Pa 11662, overnight incubation, read-out: MIC. Here is the method:
as §4, §2

A further series relates to Escherichia coli ML35p. Nature of the series: Minimal inhibitory concentration. The note with it: Ec ML35p, overnight incubation. In kind it is cell-based. The procedure: as §4, §2
The test system of series [5] is Salmonella enterica serovar Choleraesuis 7308. The series is described as follows: Minimal inhibitory concentration. In kind it is cell-based. The note with it: CHOLERAESUIS / SC7308, SC 7308, overnight incubation, read-out: MIC. Here is the method: as §4, §2
For series [6], the system named is Salmonella enterica serovar Typhimurium 14028. Nature of the series: Minimal inhibitory concentration. In kind it is cell-based. The note with it: ST 14028, overnight incubation, read-out: MIC. The procedure: as §4, §2
Series [7] has as its system Escherichia coli 25922. Nature of the series: Minimal inhibitory concentration. In kind it is cell-based. The note with it: Ec 25922, overnight incubation, read-out: MIC. The procedure: as §4, §2
Series [8] concerns Klebsiella pneumoniae C2 (carbapenemase 2-producing strain). Nature of the series: Minimal inhibitory concentration. The class given is cell-based. The note with it: Kp C2, overnight incubation, read-out: MIC. The procedure: as §4, §2
The test system of series [9] is Klebsiella pneumoniae 1287. Nature of the series: Minimal inhibitory concentration. In kind it is cell-based. Conditions: Kp 1287, overnight incubation, read-out: MIC. The procedure: as §4, §2
The subject of the next series is K. pneumoniae. The series is described as follows: Minimal bactericidal concentration. The class given is cell-based. Conditions: Klebsiella pneumoniae.
Series [10] deals with Escherichia coli 25922. Nature of the series: Mouse peritonitis-sepsis model. The class given is in vivo. Here is the method: A mouse peritonitis-sepsis model was created as described elsewhere. Infection was obtained after intraperitoneal injection of bacteria from a logarithmic-phase culture. Infected mice were treated subcutaneously. The doses were selected to allow comparison with the reference compound and to remain below the maximum tolerated dose after double-dose administration. […] Briefly, mouse peritonitis sepsis model for in vivo studies were performed using male ICR mice ([…]) obtained from Envigo Laboratories (Rehovot, Israel). […] Infection was obtained by intraperitoneal injection of a logarithmic phase culture of E. coli 25922 (1.3±0.2×10^6 CFU permouse in 0.3 ml PBS). […] Infection control mice were injected with the PBS vehicle. Mouse survival was monitored for up to 7 days after treatment. Statistical analyses were performed by paired Student's t test, at α=0.05.

Series [11] deals with resistance—nodulation—division deletion mutant. Nature of the series: MIC on efflux mutant. The class given is cell-based. Conditions: Escherichia coli.
Text: The following strains were used for the studies below: Escherichia coli strain ML-35p (American Type Culture Collection [ATCC]; […]. The following gram-positive species was investigated: methicillin-resistant Staphylococcus aureus clinical isolate USA300 10017 (a gift from Dr. Gili Regev-Yochay, Infectious Disease Unit, Sheba Medical Center, Israel). Additional Escherichia coli strains tested include β-lactamase producer 35218; clinical isolate strains 14182, 14384, and U16327; and two K12 isogenic mutants, AG100 and AG100A. Unless otherwise stated, all bacterial cultures were grown overnight in Luria-Bertani broth (LB).
as §4

A short description of series [12]: Critical aggregation concentration by light scattering in PBS. In kind it is physicochemical. Conditions: light scattering in phosphate-buffered saline. Here is the method: as §1, §2
Another series deals with K. pneumoniae 1287. Nature of the series: Growth kinetics by absorbance at 620 nm. The class given is cell-based, Klebsiella pneumoniae. The note with it: 10 μM Compound B, culture medium. The procedure:
as §3

The subject of series [13] is Escherichia coli 25922. Nature of the series: Checkerboard assay with lysozyme in broth medium. In kind it is cell-based. Here is the method:
(§5) Inhibition was determined after 24 hours of incubation.

The subject of series [14] is Klebsiella pneumoniae 1287. Nature of the series: Checkerboard assay with lysozyme in broth medium. Conditions: growth medium, 2.5, 5, 10 μM Compound B combined with lysozyme, 24 hours. In kind it is cell-based. Here is the method:
as §5

By MIC is commonly meant the lowest concentration found to suppress growth. Usually MBC stands for the lowest tested concentration that kills the bacteria rather than only halting them. The low end stands for greater bactericidal potency, the high end for weaker bactericidal potency. In the case of `CCCCCCCCCC(=O)NC(CCCN)C(=O)NC(CCCN)C(=O)NCCCCCCCCCCCC(=O)NC(CCCN)C(N)=O` (stereo not shown) [Compound B] (Decanoyl-[Orn][Orn][12Ado][Orn]-NH2; configuration not given here), the CC50 at 3 h in the series “Hemolytic assay” was more than 100 µM. For the same compound, the “OM permeabilization (NPN fluorescence)” value in the series with E. coli 25922 [1] is “rapidly caused a dose-dependent increase in fluorescence”. The “growth kinetics in presence vs absence of compound” value in the series with E. coli 25922 [2] and with K. pneumoniae 1287 was “practically identical curves” each time. Also, the MIC is 50 µM (≈ 35.6 µg/mL) in series [3]; 50 µM (≈ 35.6 µg/mL) in [4]; more than 50 µM with Escherichia coli ML35p; more than 50 µM in series [5]; more than 50 µM in series [6]; more than 50 µM with Escherichia coli 25922 [7]. Also, the MIC in [8] is more than 50 µM; in series [9], more than 50 µM; in [11], 6.3 µM (≈ 4.48 µg/mL). In the series with K. pneumoniae, this compound returned a minimum bactericidal concentration (MBC) of more than 50 µM. In the series on Escherichia coli 25922 [10] (bacteria exposed in vitro to 5 μM Compound B for 15 minutes, neutropenic mice, 3 days post-infection), the “animal survival after infection with pretreated bacteria” value amounted to 40%. The compound further registered a survival rate in the series on Escherichia coli 25922 [10] (neutropenic ICR mice infected i.p., lower dose administrated twice (1 and 6 hours after inoculation)) of 70%. Besides, the “mice protected from fatal sepsis (survival)” value with Escherichia coli 25922 [10] (neutropenic ICR mice infected i.p., s.c. single dose 1 hour after inoculation) came out at 40%. Moreover, the “mice protected from developing sepsis” value with Escherichia coli 25922 [10] (neutropenic ICR mice, Compound B […] s.c. alone, 1 hour after infection) turned out to be 36%. Moreover, the “CAC, critical aggregation concentration” value in [12] is more than 100 µM. Moreover, the “growth inhibition in combination with lysozyme” value in the series with Escherichia coli 25922 [13] (growth medium, 2.5, 5, 10 μM Compound B combined with lysozyme, 24 hours) was “dose-dependent synergistic growth inhibition”; in [14], “dose-dependent synergistic growth inhibition”. Also, the “E. coli counts (final, from 4 log)” value in the series on Escherichia coli 25922 [13] (medium, 10 μM Compound B plus 18 μM lysozyme) came out at 9 log CFU/mL.
